Assays:
Rattus norvegicus [1] = test: Toxicity in Wistar rat assessed as total bilirubin at 100 mg/kg, po bid for 28 days (reference value: 0.14 +/- 0.01 mg/dL); format: organism-based; set-up: dose 100 mg/kg, route oral; conditions: in vivo, 672 h
Rattus norvegicus [2] = test: Toxicity in Wistar rat assessed as alanine aminotransferase at 100 mg/kg, po bid for 28 days (reference value: 20.78 +/- 1.31 U/L); format: organism-based; set-up: dose 100 mg/kg, route oral; conditions: in vivo, 672 h
Rattus norvegicus [3] = test: Toxicity in Wistar rat assessed as aspartate aminotransferase at 100 mg/kg, po bid for 28 days (reference value: 147.16 +/- 11.75 U/L); format: organism-based; set-up: dose 100 mg/kg, route oral; conditions: in vivo, 672 h
Rattus norvegicus [4] = test: Toxicity in Wistar rat assessed as alkaline phosphatase at 100 mg/kg, po bid for 28 days (reference value: 134.66 +/- 5.3 U/L); format: organism-based; set-up: dose 100 mg/kg, route oral; conditions: in vivo, 672 h
Blood = test: Antiinflammatory activity in human whole blood assessed as inhibition of LPS-induced TNFalpha secretion by ELISA; format: functional, tissue-based
Rattus norvegicus [5] = test: Toxicity in Wistar rat assessed as RBC count at 100 mg/kg, po bid for 28 days (reference value: 7.38 +/- 0.11 10^6/ul); format: organism-based; set-up: dose 100 mg/kg, route oral; conditions: in vivo, 672 h
Rattus norvegicus [6] = test: Toxicity in Wistar rat assessed as WBC count at 100 mg/kg, po bid for 28 days (reference value: 8.20 +/- 0.33 10^3/ul); format: organism-based; set-up: dose 100 mg/kg, route oral; conditions: in vivo, 672 h
[7] = biological target: T1, Disintegrin and metalloproteinase domain-containing protein 17 (Homo sapiens, UniProt P78536); test: Inhibition of human catalytic domain of TACE assessed as inhibit the cleavage of the substrate by fluorescence-based FRET assay
T1 sequence (P78536 whole entry, the tested form may be a part): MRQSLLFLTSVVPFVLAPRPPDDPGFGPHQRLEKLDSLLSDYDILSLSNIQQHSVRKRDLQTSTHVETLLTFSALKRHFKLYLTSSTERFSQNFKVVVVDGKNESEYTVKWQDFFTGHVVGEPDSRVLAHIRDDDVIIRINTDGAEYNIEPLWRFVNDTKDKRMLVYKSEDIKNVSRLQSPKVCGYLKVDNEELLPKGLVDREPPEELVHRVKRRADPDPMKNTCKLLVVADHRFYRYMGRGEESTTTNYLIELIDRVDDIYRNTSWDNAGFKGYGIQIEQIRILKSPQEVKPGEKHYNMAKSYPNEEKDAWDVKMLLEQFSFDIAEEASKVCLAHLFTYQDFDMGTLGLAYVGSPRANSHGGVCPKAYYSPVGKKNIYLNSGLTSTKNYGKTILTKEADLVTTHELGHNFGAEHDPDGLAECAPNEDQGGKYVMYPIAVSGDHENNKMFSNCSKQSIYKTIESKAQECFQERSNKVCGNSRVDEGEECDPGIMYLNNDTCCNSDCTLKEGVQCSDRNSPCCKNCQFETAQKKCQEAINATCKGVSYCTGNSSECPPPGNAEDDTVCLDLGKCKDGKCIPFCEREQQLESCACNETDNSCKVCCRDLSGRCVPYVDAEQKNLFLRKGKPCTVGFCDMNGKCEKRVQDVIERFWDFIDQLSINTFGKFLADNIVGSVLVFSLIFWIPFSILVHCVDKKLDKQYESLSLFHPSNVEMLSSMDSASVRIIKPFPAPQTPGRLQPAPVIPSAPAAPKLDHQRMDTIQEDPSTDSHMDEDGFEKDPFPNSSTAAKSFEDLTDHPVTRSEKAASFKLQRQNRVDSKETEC

[8] = biological target: T2, Disintegrin and metalloproteinase domain-containing protein 10 (Homo sapiens, UniProt O14672); test: Inhibition of ADAM10 (unknown origin) using fluorescent substrate by fluorescence-based FRET assay
T2 sequence (O14672 whole entry): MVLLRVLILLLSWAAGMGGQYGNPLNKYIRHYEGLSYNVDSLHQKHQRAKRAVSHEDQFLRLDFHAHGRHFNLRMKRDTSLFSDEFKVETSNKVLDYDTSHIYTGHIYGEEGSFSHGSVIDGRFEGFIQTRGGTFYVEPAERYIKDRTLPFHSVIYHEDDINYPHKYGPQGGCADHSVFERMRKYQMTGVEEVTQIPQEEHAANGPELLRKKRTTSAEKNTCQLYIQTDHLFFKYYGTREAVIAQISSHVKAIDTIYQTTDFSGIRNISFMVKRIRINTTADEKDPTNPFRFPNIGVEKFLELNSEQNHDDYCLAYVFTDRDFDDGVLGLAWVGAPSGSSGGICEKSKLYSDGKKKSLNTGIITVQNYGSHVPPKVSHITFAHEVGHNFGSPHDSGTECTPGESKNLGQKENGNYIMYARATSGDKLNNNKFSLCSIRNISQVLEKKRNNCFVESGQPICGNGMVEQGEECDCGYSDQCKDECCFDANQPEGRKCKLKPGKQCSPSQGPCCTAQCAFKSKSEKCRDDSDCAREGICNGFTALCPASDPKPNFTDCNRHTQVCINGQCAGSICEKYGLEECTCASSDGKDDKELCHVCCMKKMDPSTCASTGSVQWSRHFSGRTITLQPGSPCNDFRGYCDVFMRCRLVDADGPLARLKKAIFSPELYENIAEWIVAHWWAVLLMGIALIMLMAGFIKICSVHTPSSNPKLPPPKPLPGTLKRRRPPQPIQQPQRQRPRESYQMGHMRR

Interstitial collagenase = biological target: T3, Interstitial collagenase (Homo sapiens, UniProt P03956); test: Inhibition of MMP1 (unknown origin) by fluorescence-based FRET assay
T3 sequence (P03956 whole entry): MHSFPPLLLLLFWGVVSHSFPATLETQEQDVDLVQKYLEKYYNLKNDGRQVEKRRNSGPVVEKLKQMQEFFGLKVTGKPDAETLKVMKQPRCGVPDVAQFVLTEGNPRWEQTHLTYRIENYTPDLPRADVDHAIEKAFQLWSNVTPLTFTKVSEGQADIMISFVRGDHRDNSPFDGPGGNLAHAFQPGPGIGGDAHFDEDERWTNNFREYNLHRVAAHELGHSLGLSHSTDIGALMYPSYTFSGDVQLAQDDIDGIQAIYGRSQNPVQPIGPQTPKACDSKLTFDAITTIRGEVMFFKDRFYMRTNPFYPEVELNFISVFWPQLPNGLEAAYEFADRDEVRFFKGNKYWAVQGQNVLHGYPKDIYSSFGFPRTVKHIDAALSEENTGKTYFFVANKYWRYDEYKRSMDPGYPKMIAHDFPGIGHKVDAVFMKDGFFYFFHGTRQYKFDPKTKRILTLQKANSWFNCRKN

[9] = biological target: 72 kDa type IV collagenase (Homo sapiens, UniProt P08253); test: Inhibition of MMP2 (unknown origin) by fluorescence-based FRET assay
Chain of 72 kDa type IV collagenase (P08253 whole entry): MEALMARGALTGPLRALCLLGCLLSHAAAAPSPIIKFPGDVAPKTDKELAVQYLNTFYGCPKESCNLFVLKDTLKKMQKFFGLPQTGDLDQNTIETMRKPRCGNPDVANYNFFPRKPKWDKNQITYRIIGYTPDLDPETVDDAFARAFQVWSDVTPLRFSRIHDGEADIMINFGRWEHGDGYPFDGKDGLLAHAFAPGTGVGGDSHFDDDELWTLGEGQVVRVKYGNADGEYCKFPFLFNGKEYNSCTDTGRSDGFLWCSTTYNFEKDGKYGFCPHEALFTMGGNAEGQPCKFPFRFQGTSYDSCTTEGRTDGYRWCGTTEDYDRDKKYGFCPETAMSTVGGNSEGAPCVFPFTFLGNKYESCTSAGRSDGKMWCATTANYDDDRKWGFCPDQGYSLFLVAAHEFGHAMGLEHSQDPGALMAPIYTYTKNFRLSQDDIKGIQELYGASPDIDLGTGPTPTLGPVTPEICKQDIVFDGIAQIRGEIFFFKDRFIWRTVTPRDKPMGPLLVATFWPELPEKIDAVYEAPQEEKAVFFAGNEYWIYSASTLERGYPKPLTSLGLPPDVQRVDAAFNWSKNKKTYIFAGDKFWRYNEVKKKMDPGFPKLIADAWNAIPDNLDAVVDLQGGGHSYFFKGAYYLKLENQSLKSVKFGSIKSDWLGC

Stromelysin-1 = Stromelysin-1 (Homo sapiens, UniProt P08254); test: Inhibition of MMP3 (unknown origin) by fluorescence-based FRET assay
Chain of Stromelysin-1 (P08254 whole entry): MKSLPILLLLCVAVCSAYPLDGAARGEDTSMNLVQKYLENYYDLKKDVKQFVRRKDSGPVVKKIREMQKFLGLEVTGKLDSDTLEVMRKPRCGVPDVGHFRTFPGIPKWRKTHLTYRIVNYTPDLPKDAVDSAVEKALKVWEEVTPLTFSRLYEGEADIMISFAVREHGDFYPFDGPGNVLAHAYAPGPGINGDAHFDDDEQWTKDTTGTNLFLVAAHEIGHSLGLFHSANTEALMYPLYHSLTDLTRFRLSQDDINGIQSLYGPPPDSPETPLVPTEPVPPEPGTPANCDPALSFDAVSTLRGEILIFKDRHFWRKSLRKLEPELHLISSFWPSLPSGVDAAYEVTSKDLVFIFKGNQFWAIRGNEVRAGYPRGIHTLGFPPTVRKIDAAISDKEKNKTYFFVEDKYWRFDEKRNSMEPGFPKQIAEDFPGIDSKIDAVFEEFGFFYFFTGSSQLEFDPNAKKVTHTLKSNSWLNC

Matrilysin = biological target: T4, Matrilysin (Homo sapiens, UniProt P09237); test: Inhibition of MMP7 (unknown origin) by fluorescence-based FRET assay
T4 sequence (P09237 whole entry): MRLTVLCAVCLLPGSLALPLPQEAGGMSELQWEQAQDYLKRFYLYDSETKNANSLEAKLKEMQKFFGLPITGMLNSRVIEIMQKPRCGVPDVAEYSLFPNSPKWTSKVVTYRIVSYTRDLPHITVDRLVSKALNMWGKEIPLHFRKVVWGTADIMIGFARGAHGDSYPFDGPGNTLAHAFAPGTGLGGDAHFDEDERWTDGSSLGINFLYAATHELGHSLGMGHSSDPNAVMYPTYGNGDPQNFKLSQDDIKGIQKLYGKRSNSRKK

Neutrophil collagenase = Neutrophil collagenase (Homo sapiens, UniProt P22894); test: Inhibition of MMP8 (unknown origin) by fluorescence-based FRET assay
Chain of Neutrophil collagenase (P22894 whole entry): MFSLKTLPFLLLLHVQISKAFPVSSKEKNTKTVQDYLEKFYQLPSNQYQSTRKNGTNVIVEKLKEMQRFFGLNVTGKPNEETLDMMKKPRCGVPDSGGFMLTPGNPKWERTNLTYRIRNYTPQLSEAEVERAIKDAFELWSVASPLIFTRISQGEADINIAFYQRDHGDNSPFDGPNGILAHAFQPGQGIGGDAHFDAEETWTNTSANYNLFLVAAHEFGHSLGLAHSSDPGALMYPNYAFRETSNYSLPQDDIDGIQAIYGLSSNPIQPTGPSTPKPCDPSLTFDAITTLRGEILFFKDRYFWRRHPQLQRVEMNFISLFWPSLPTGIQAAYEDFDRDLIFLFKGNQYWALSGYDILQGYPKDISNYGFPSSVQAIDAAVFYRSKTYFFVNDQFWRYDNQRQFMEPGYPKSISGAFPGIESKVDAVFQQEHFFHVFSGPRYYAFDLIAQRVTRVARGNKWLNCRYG

[10] = biological target: Matrix metalloproteinase-9 (Homo sapiens, UniProt P14780); test: Inhibition of MMP9 (unknown origin) by fluorescence-based FRET assay
Chain of Matrix metalloproteinase-9 (P14780 whole entry): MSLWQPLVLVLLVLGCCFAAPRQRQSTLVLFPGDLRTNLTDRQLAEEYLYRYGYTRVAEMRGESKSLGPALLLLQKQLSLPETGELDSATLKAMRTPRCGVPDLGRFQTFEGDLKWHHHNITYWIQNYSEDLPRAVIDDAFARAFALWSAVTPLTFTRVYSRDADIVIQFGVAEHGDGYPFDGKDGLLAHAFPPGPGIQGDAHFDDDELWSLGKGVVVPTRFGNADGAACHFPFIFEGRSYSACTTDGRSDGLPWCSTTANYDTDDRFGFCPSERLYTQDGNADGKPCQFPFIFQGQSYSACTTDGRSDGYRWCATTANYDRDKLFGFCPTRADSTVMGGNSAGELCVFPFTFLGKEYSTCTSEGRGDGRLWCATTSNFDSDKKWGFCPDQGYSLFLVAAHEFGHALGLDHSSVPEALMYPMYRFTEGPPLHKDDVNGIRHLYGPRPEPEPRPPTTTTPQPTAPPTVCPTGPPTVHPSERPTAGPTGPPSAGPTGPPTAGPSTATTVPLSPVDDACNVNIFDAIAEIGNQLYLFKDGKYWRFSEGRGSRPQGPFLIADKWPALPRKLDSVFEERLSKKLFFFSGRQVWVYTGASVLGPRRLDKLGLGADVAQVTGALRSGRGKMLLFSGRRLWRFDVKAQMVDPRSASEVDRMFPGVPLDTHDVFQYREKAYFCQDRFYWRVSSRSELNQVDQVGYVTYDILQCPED

Collagenase 3 = Collagenase 3 (Homo sapiens, UniProt P45452); test: Inhibition of MMP13 (unknown origin) by fluorescence-based FRET assay
[11] = biological target: Matrix metalloproteinase-14 (Homo sapiens, UniProt P50281); test: Inhibition of MMP14 (unknown origin) by fluorescence-based FRET assay
[12] = biological target: T1, Disintegrin and metalloproteinase domain-containing protein 17; test: Ratio of IC50 for human catalytic domain of TACE to IC50 for ADAM10 (unknown origin)
Mus musculus = test: Antiinflammatory activity in po dosed Swiss Albino mouse assessed as inhibition of LPS-induced TNFalpha secretion in blood treated 0.5 hrs before LPS and measured after 1 hr of LPS stimulus by ELISA; format: functional
[13] = Half life in Wistar rat at 5 mg/kg, iv; format: ADME, organism-based; set-up: dose 5 mg/kg, route intravenous; conditions: in vivo
[14] = Elimination rate constant in Wistar rat at 5 mg/kg, iv; format: ADME, organism-based; set-up: dose 5 mg/kg, route intravenous; conditions: in vivo
[15] = AUC in Wistar rat at 5 mg/kg, iv; format: ADME, organism-based; set-up: dose 5 mg/kg, route intravenous; conditions: plasma
[16] = Tmax in Wistar rat at 5 mg/kg, po; format: ADME, organism-based; set-up: dose 5 mg/kg, route oral; conditions: in vivo
[17] = Half life in Wistar rat at 5 mg/kg, po; format: ADME, organism-based; set-up: dose 5 mg/kg, route oral; conditions: Wistar, in vivo
[18] = Elimination rate constant in Wistar rat at 5 mg/kg, po; format: ADME, organism-based; set-up: dose 5 mg/kg, route oral; conditions: Wistar, in vivo
[19] = AUC in Wistar rat at 5 mg/kg, po; format: ADME, organism-based; set-up: dose 5 mg/kg, route oral; conditions: plasma
[20] = Oral bioavailability in Wistar rat at 5 mg/kg; format: ADME, organism-based; conditions: in vivo
Rattus norvegicus [21] = test: Toxicity in Wistar rat assessed as survival at 100 mg/kg, po bid for 28 days; format: organism-based; set-up: dose 100 mg/kg, route oral; conditions: in vivo, 672 h
Rattus norvegicus [22] = test: Toxicity in Wistar rat assessed as adverse changes at 100 mg/kg, po bid for 28 days; format: organism-based; set-up: dose 100 mg/kg, route oral; conditions: in vivo, 672 h
Rattus norvegicus [23] = test: Toxicity in Wistar rat assessed as body weight at 100 mg/kg, po bid for 28 days; format: organism-based; set-up: dose 100 mg/kg, route oral; conditions: in vivo, 672 h
Rattus norvegicus [24] = test: Toxicity in Wistar rat assessed as food consumption at 100 mg/kg, po bid for 28 days; format: organism-based; set-up: dose 100 mg/kg, route oral; conditions: in vivo, 672 h
Rattus norvegicus [25] = test: Toxicity in Wistar rat assessed as relative heart weight at 100 mg/kg, po bid for 28 days (reference value: 0.345 +/- 0.007 %); format: organism-based; set-up: dose 100 mg/kg, route oral; conditions: in vivo, 672 h
Rattus norvegicus [26] = test: Toxicity in Wistar rat assessed as relative liver weight at 100 mg/kg, po bid for 28 days (reference value: 3.659 +/- 0.1 %); format: organism-based; set-up: dose 100 mg/kg, route oral; conditions: in vivo, 672 h
Rattus norvegicus [27] = test: Toxicity in Wistar rat assessed as relative kidney weight at 100 mg/kg, po bid for 28 days (reference value: 0.821 +/- 0.03 %); format: organism-based; set-up: dose 100 mg/kg, route oral; conditions: in vivo, 672 h
Rattus norvegicus [28] = test: Toxicity in Wistar rat assessed as relative spleen weight at 100 mg/kg, po bid for 28 days (reference value: 0.201+/- 0.007 %); format: organism-based; set-up: dose 100 mg/kg, route oral; conditions: in vivo, 672 h
Rattus norvegicus [29] = test: Toxicity in Wistar rat assessed as relative brain weight at 100 mg/kg, po bid for 28 days (reference value: 0.727+/- 0.024 %); format: organism-based; set-up: dose 100 mg/kg, route oral; conditions: in vivo, 672 h

Cc1cc(COc2ccc([C@]3(N)CCN([C@H](CC(C)C)C(=O)NO)C3=O)cc2)c2ccccc2n1
Activity (Rattus norvegicus [1]): 0.79 mg/dL
Activity (Rattus norvegicus [2]): 39.22 U/L
Activity (Rattus norvegicus [3]): 457.21 U/L
Activity (Rattus norvegicus [4]): 523.43 U/L
IC50 (Blood): 0.06 µM
Activity (Rattus norvegicus [5]): 7.69 ×10⁶ /uL
Activity (Rattus norvegicus [6]): 8.99 ×10³ /uL
IC50 [7]: 0.012 µM
IC50 [8]: 0.48 µM
IC50 (Interstitial collagenase): 0.429 µM
IC50 [9]: 0.482 µM
IC50 (Stromelysin-1): 0.285 µM
IC50 (Matrilysin): 0.466 µM
IC50 (Neutrophil collagenase): 0.299 µM
IC50 [10]: 0.389 µM
IC50 (Collagenase 3): 0.461 µM
IC50 [11]: 0.499 µM
Ratio IC50 [12]: 40
ED50 (Mus musculus): 6.9 mg/kg
half-life [13]: 2.69 h
k el [14]: 8.33e-05 s⁻¹
AUC [15]: 32400 ng·h/mL
Tmax [16]: 1.21 h
half-life [17]: 8.67 h
k el [18]: 2.22e-05 s⁻¹
AUC [19]: 5970 ng·h/mL
bioavailability [20]: 18.4%
Activity (Rattus norvegicus [21]): Non-toxic
Activity (Rattus norvegicus [22]): Non-toxic
Activity (Rattus norvegicus [23]): Non-toxic
Activity (Rattus norvegicus [24]): Non-toxic
Activity (Rattus norvegicus [25]): 0.351%
Activity (Rattus norvegicus [26]): 4.993%
Activity (Rattus norvegicus [27]): 0.831%
Activity (Rattus norvegicus [28]): 0.211%
Activity (Rattus norvegicus [29]): 0.714%
